The test system of experiment [1] is conjugative transfer of plasmid pKM101. Briefly: Conjugation assay, pKM101-carrying donor FM433 and plasmid-free recipient WL400. Type of experiment: cell-based. The note with it: 50 μM, 2.5% DMSO. Here is the method:
Quantitation of conjugative DNA transfer was performed as described previously. For analysis of the inhibition of conjugation by fragments or small molecules, the cells were cultivated on agar and in liquid media in the presence of 50 μM of the small molecules in the presence of 2.5% DMSO.

The target of experiment [2] is T1, purified periplasmic domain of TraE (plasmid pKM101) (Escherichia coli, UniProt Q17U16). In words: Binding to TraE by fluorescence quenching (intrinsic UV fluorescence). The note with it: 20 °C, 20 mM HEPES, 50 mM NaCl, pH 7.4; single site saturation fit. Here is the method:
Protein overexpression and purification was performed as described previously. The TraE buffer was changed to 20 mM HEPES, 50 mM NaCl, pH 7.4. TraE protein concentrations were determined using the molar extinction coefficient at 280 nm of 25 900 M^−1 cm^−1.
Changes of the intrinsic UV fluorescence emission of TraE upon binding of fragments and small molecules were recorded at 20 °C with a Cary Eclipse Fluorometer (Varian) (λex 295 nm, λem 340 nm, 5 nm excitation and emission slit widths) in 20 mM HEPES, 50 mM NaCl, pH 7.4. The spectra were corrected for dilution effects and KD values were calculated from the ligand binding fluorescence data fitted to a single site saturation curve with constant background using the Grafit 6.0 software package.

Experiment [3] concerns the target T1, purified periplasmic domain of TraE (plasmid pKM101). In words: Differential scanning fluorimetry (DSF) thermal shift of TraE. In kind it is binding. The note with it: 5 mM fragment or small molecule, 5 μM protein; hit when ΔTm higher than 1 °C. Here is the method:
A library of 505 fragments was used in this study of which 186 were previously described[14] and the others are listed in Supplementary Table 3. DSF experiments were performed as described previously. DSF was conducted using 5 μM of protein, 10X concentration of SYPRO Orange (from 5000X stock solution, ThermoFisher) in 20 mM HEPES, 50 mM NaCl, pH 7.4 and 5% final concentration of DMSO. For fragment-based screening and molecule optimization, fragments or small molecules were added to final concentrations of 5 mM. SYPRO Orange fluorescence was monitored over 20–95 °C with a LightCycler® 480 instrument (Roche, USA). The LightCycler® 480 Software (Roche) was used to calculate the first derivate of the resulting melting curve, with the steepest point of the slope being the Tm. Fragments were considered to be hits when ΔTm was higher than 1 °C, which is two times higher than the standard deviation of the DMSO control.
Background: DSF heats the sample and reads unfolding from a dye or from intrinsic fluorescence.

Experiment [4] concerns purified periplasmic domain of TraE. In words: In vitro DSS cross-linking assay of TraE dimerization. In kind it is biochemical. The note with it: 0–1.6 mM molecule, normalized to control without small molecules. On the procedure: Chemical crosslinking with disuccinimidyl suberate (DSS, Pierce) was performed as described previously[13] and the formation of crosslinking products was quantified by SDS-PAGE and using the ImageLab Software 4.0 (Bio-Rad).

T1 sequence (Q17U16 entry or part of it): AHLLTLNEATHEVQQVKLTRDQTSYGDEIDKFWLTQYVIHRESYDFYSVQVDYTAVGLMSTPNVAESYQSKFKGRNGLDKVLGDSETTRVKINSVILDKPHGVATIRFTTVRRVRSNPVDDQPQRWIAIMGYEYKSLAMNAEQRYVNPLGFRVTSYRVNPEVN

By Kd is commonly meant the concentration at which binding is half-saturated. Lower therefore signals a tighter complex. 2-chloroisonicotinic acid [4H10]: the “Effect on conjugative transfer of pKM101” value in experiment [1] is listed as “no effect on conjugation”. Moreover, the dissociation constant Kd in experiment [2] is 32 ± 1.8 µM.
The corresponding values for `O=C(O)c1ccco1` [1E6, 2-furoic acid] are “no effect on conjugation” and 23 ± 1.9 µM.
Consider `O=C(O)c1cc(-n2cccc2)ccn1` [compound 105055, 4-(1H-pyrrol-1-yl)pyridine-2-carboxylic acid], for which the “Effect on thermal melting point of TraE (DSF)” value in experiment [3] is listed as “stabilized the protein”. Further, the “Effect on conjugative transfer of pKM101” value in experiment [1] is on record as “significantly reduce conjugative DNA transfer”. Also, the Kd in experiment [2] came out at 9.3 ± 0.4 µM. The “Effect on formation of DSS-dependent cross-linking products of TraE (dimerization)” value in experiment [4] is given as “significantly inhibit cross-linking”.
For `O=C(O)c1ccnc(-c2ccco2)c1` [compound 239852, 2-(2-furyl)isonicotinic acid] the same measures were “stabilized the protein”, “significantly reduce conjugative DNA transfer”, 19.6 ± 1.2 µM and “significantly inhibit cross-linking”.

Values taken from article PMC5668240, “Fragment-based screening identifies novel targets for inhibitors of conjugative transfer of antimicrobial resistance by plasmid pKM101” (Scientific Reports, 2017).
